The values below come from patent US6008234A, “Benzamidine derivatives substituted by cyclic amino acid and cyclic hydroxy acid derivatives and their use as anti-coagulants” (Berlex Laboratories, Inc., priority 1997, dated 1999).

Non-standard residues stand in square brackets, D forms with d. Residues, ends and D or L forms follow the SMILES beside them. *: point of attachment. pNA = O=[N+]([O-])c1ccc(N*)cc1

Assay [1] deals with T1, Human tissue plasminogen activator (tPA) (Two chains, Sigma) (Homo sapiens, UniProt P00750).
T1 construct: purchased Sigma
The experiment in a line: In vitro chromogenic assay for tPA (S2288 cleavage). The assay is classed as biochemical. The settings on record: 10 nM tPA; pH 7.5; ambient temperature; substrate concentration stated equal to Km. As for the experimental part: (§1) The activities were determined as an initial rate of cleavage of the peptide p-nitroanilide by the enzyme. The cleavage product, p-nitroaniline, absorbs at 405 nm with a molar extinction coefficient of 9920 M^-1 cm^-1.
(§2) 50 mM TrisHCl, 150 mM NaCl, 2.5 mM CaCl2, and 0.1% polyethylene glycol 6000, pH 7.5.
3. Human tissue plasminogen activator (tPA) (Two chains, Sigma) stock solution: 1 mg/mL, stored at -80° C. (working solution (2×): 1361 ng/mL in assay buffer, prepare prior to use).
3. S2288 (tPA assay) stock solution: 10 mM in deionized H2 O, stored at 4° C. (working solution (4×): 1484 μM in assay buffer).
Assays were performed in 96-well microtiter plates in a total volume of 200 μl. […] Concentrations of the standard inhibitor compound in the assay were from 5 μM to 0.021 μM in 1 to 3 dilution. Concentration of the test compounds in the assay typically were from 10 μM to 0.041 μM in 1 to 3 dilution. […]
(§3) The enzyme kinetics were measured at 405 nm at 10 seconds intervals for five minutes in a THERMOmax plate reader at ambient temperature.
(§4) Enzyme rates were calculated as mOD/min based on the first two minutes readings. The IC50 values were determined by fitting the data to the log-logit equation (linear) or the Morrison equation (non-linear) with an EXCEL spread-sheet. […]

In assay [2] the target is T2, Human thrombin (Homo sapiens, UniProt P00734).
T2 construct: Human thrombin stock solution; purchased Enzyme Research Lab
The experiment in a line: In vitro chromogenic assay for thrombin (S2302 cleavage). The note with it: 20 nM thrombin; pH 7.5; ambient temperature; substrate concentration stated equal to Km. The assay is classed as biochemical. Here is the method: as §1, §2
2. Human thrombin stock solution: Stored at -80° C. (working solution (2×): 1200 ng/mL or 40 nM in assay buffer, prepare prior to use).
2. S2302 (Thrombin assay) stock solution: 10 mM in deionized H2 O, stored at 4° C. (working solution (4×): 1200 μM in assay buffer).
Assays were performed in 96-well microtiter plates in a total volume of 200 μl. […] Concentrations of the standard inhibitor compound in the assay were from 5 μM to 0.021 μM in 1 to 3 dilution. Concentration of the test compounds in the assay typically were from 10 μM to 0.041 μM in 1 to 3 dilution. For potent test compounds, the concentrations used in the factor Xa assay were further diluted 100 fold (100 nM to 0.41 nM) or 1000 fold (10 nM to 0.041 nM). […]
as §3, §4

T1 sequence (P00750 311-562 limits assumed): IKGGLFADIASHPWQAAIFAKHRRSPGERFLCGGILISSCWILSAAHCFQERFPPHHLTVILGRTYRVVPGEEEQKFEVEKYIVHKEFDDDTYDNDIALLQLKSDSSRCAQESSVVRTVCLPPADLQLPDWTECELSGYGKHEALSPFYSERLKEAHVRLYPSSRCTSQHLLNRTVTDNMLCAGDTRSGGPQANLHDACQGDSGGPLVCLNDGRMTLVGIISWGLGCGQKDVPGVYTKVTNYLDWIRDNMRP
T1 sequence (P00750 36-310 limits assumed): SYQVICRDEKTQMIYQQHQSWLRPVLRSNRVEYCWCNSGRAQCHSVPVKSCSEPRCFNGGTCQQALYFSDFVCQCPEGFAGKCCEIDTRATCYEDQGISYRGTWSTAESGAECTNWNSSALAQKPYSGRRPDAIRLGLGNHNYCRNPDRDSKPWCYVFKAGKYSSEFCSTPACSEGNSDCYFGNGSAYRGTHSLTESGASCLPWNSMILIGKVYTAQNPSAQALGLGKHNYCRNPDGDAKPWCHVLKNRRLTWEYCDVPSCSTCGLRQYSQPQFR

One may read the Km as the concentration of substrate that gives half-maximal velocity. For `CC[C@@H](C)[C@@H](N)C(=O)N1CCC[C@H]1C(=O)N[C@@H](CCCN=C(N)N)C(=O)Nc1ccc([N+](=O)[O-])cc1` [Example S2288] (H-[dI]-Pro-Arg-pNA), the Km in assay [1] stood at 371 µM. Turning to `N=C(N)NCCC[C@H](NC(=O)[C@H](Cc1ccccc1)NC(=O)[C@H]1CCCN1)C(=O)Nc1ccc([N+](=O)[O-])cc1` [Example S2302] (H-[dP]-Phe-Arg-pNA), the Km in assay [2] was determined as 300 µM.
